Results on 23 molecules are retold here after ChEMBL document CHEMBL4002568, “Synthesis, alkaline phosphatase inhibition studies and molecular docking of novel derivatives of 4-quinolones” (Eur J Med Chem, 2017).

Assay [1] deals with T1, Alkaline phosphatase, tissue-nonspecific isozyme (Bos taurus, UniProt P09487).
T1 sequence (P09487 whole entry): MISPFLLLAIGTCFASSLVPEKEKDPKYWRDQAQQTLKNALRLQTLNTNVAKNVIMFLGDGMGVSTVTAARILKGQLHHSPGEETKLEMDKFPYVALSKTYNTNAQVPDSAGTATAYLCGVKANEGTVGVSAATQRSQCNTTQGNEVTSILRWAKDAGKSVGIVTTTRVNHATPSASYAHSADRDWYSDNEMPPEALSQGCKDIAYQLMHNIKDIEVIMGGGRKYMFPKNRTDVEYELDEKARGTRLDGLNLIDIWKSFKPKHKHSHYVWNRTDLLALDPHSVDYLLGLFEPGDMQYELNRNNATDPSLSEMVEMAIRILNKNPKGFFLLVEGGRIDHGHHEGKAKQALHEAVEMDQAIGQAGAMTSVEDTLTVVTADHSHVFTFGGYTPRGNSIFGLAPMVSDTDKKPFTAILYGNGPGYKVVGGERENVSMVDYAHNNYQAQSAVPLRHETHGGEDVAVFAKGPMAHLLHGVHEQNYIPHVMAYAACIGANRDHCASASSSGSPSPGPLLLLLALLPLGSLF
Briefly: Inhibition of bovine TNAP using CDP-star as substrate preincubated for 5 to 7 mins followed by substrate addition measured after 15 mins by spectrophotometric method.

The target of assay [2] is Intestinal-type alkaline phosphatase (Bos taurus, UniProt P19111). Briefly: Inhibition of calf intestinal alkaline phosphatase using CDP-star as substrate preincubated for 5 to 7 mins followed by substrate addition measured after 15 mins by spectrophotometric method.
The target in assay [3] is Intestinal-type alkaline phosphatase (Bos taurus) (UniProt P19111). Nature of the assay: Inhibition of calf intestinal alkaline phosphatase at 0.2 mM using CDP-star as substrate preincubated for 5 to 7 mins followed by substrate addition measured after 15 mins by spectrophotometric method.
Assay [4] has the same target. Briefly: Potency index, ratio of L-phenylalanine IC50 to test compound IC50 for calf intestinal alkaline phosphatase.
For assay [5], the target named is T2, Alkaline phosphatase, tissue-nonspecific isozyme (Bos taurus) (UniProt P09487).
T2 sequence (whole entry): T1 sequence (P09487 whole entry)
Nature of the assay: Inhibition of bovine TNAP at 0.2 mM using CDP-star as substrate preincubated for 5 to 7 mins followed by substrate addition measured after 15 mins by spectrophotometric method.

Each structure is given as a SMILES string.

Chain of Intestinal-type alkaline phosphatase (Bos taurus) (P19111 20-506 limits assumed): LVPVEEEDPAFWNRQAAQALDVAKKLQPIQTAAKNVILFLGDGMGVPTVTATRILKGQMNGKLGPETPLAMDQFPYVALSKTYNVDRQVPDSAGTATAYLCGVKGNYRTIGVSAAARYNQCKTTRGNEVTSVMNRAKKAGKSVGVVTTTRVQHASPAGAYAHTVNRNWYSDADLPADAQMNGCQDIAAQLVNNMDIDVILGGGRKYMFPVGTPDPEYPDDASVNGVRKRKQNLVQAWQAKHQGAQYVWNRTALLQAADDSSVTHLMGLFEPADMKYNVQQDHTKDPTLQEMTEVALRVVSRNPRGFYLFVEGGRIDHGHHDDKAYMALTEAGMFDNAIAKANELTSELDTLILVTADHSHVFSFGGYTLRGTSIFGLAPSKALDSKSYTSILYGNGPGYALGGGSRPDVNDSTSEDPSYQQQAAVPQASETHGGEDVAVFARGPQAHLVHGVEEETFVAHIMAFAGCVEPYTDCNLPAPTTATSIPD
Chain of Intestinal-type alkaline phosphatase (P19111 whole entry): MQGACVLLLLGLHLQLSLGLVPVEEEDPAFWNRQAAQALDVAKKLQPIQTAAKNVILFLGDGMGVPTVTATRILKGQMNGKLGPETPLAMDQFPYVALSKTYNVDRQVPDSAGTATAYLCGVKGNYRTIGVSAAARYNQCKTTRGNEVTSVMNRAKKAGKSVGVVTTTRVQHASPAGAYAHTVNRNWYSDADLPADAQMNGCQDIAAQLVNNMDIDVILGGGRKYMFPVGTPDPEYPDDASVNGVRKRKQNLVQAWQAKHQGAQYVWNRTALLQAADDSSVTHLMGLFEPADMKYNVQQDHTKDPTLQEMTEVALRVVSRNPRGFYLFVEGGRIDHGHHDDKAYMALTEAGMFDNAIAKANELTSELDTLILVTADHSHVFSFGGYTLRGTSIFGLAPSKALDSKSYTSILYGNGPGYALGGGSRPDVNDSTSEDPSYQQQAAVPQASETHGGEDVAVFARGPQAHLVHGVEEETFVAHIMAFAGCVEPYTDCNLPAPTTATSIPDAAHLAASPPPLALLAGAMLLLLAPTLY

By IC50 is commonly meant the concentration that inhibits the measured activity by half. Lower therefore signals higher potency. Regarding `Cc1ccc(-c2cc(=O)c3cc(N)ccc3[nH]2)cc1`, the figures for the concentration for half-maximal inhibition (IC50) in assay [1] and in assay [2] were 19.4 µM and 16.2 µM, respectively.

By inhibition is commonly meant the percentage by which the read-out fell short of the control. Low values mean little suppression, high ones strong suppression. Molecule `CCCCCc1c(-c2ccc(C(F)(F)F)cc2)c(=O)c2cc([N+](=O)[O-])ccc2n1Cc1ccc(OC)cc1` had a 50% inhibitory concentration (IC50) in assay [1] of 38.5 µM. The inhibition in assay [3] stood at 48.6%.

In assay [1], `COc1ccc(Cn2c(-c3ccc(C)cc3)c(-c3ccc(C)cc3)c(=O)c3cc(N)ccc32)cc1` came in with a half-inhibitory concentration (IC50) of 15.1 µM. Moreover, the inhibition in assay [3] was 38.7%.

Regarding `CCCCCc1c(Br)c(=O)c2cc([N+](=O)[O-])ccc2n1Cc1ccc(OC)cc1`, the IC50 is 9.51 µM in assay [1] and 122 µM in assay [2].

For the molecule `CCc1ccc(-c2c(-c3ccc(C)cc3)n(Cc3ccc(OC)cc3)c3ccc([N+](=O)[O-])cc3c2=O)cc1`, the values for the 50% inhibitory concentration (IC50) in assay [1] and in assay [2] were 1.66 µM and 5.75 µM, respectively.

As to `COc1ccc(Cn2c(-c3ccc(C)cc3)c(-c3ccc(OC)cc3)c(=O)c3cc([N+](=O)[O-])ccc32)cc1`, the IC50 in assay [2] is 2.04 µM. In addition, the Ratio IC50 in assay [4] amounted to 40. Moreover, the inhibition in assay [5] was 46.8%.

As for `COc1ccc(Cn2c(-c3ccc(C)cc3)c(-c3ccccc3C=O)c(=O)c3cc([N+](=O)[O-])ccc32)cc1`, the IC50 in assay [1] came out at 2.35 µM; in assay [2] it was 192 µM.

In the case of `Cc1ccc(-c2cc(=O)c3cc([N+](=O)[O-])ccc3[nH]2)cc1`, the IC50 in assay [1] came to 2.56 µM; in assay [2], 6.25 µM.

In the case of `COc1ccc(C(C)n2c(-c3ccc(C)cc3)cc(=O)c3cc([N+](=O)[O-])ccc32)cc1` (stereo not drawn), the figures for the IC50 in assay [1] and in assay [2] were 17.9 µM and 4.75 µM, respectively.

For the molecule `Cc1ccc(-c2[nH]c3ccc([N+](=O)[O-])cc3c(=O)c2-c2ccc(C(F)(F)F)cc2)cc1`, the concentration for half-maximal inhibition (IC50) was found to be 2.69 µM in assay [1] and 4.38 µM in assay [2].

Regarding `COc1ccc(Cn2c(-c3ccc(C)cc3)c(-c3cc(C)cc(C)c3)c(=O)c3cc([N+](=O)[O-])ccc32)cc1`, the IC50 came to 4.74 µM in assay [1] and 28.7 µM in assay [2].

For the molecule `Cc1ccc(-c2c(Br)c(=O)c3cc([N+](=O)[O-])ccc3n2C(C)c2ccccc2)cc1` (stereo not drawn), the IC50 in assay [1] is 1.34 µM; in assay [2], 2.47 µM.

In the case of `COc1ccc(Cn2c(-c3ccc(C)cc3)c(C(F)(F)F)c(=O)c3cc([N+](=O)[O-])ccc32)cc1`, the half-maximal inhibitory concentration (IC50) in assay [1] was 4.53 µM; in assay [2], 4.58 µM.

As to `CCCCCc1cc(=O)c2cc([N+](=O)[O-])ccc2n1Cc1ccc(OC)cc1`, the IC50 in assay [1] worked out at 1.51 µM; in assay [2] it was 1.38 µM.

On to `COc1ccc(Cn2c(-c3ccc(C)cc3)c(Br)c(=O)c3cc([N+](=O)[O-])ccc32)cc1`, for which the concentration for half-maximal inhibition (IC50) in assay [1] was 4.22 µM; in assay [2], 2.43 µM.

Take `COc1ccc(Cn2c(-c3ccc(C)cc3)c(-c3ccc(C)cc3)c(=O)c3cc([N+](=O)[O-])ccc32)cc1`: the IC50 in assay [2] is 2.92 µM. The Ratio IC50 in assay [4] was 40. The molecule also registered an inhibition in assay [5] of 46.1%.

`CCCCCc1cc(=O)c2cc([N+](=O)[O-])ccc2[nH]1`: the figures for the IC50 in assay [1] and in assay [2] were 44.8 µM and 16.7 µM, respectively.

On to `COc1ccc(Cn2c(-c3ccc(C)cc3)cc(=O)c3cc([N+](=O)[O-])ccc32)cc1`, for which, in assay [1], the concentration for half-maximal inhibition (IC50) was 133 µM. The molecule also came in with an inhibition in assay [3] of 48.6%.

As for `Cc1ccc(-c2[nH]c3ccc([N+](=O)[O-])cc3c(=O)c2Br)cc1`, the results for the 50% inhibitory concentration (IC50) in assay [1] and in assay [2] were 6.47 µM and 12.1 µM, respectively.

Regarding `CCCCCc1[nH]c2ccc([N+](=O)[O-])cc2c(=O)c1Br`, the values for the 50% inhibitory concentration (IC50) in assay [1] and in assay [2] were 17.2 µM and 3.06 µM, respectively.

For `COc1ccc(-c2c(-c3ccc(C)cc3)[nH]c3ccc(N)cc3c2=O)cc1`, the IC50 in assay [1] was determined as 14.8 µM; in assay [2] it was 1.06 µM.

For `COc1ccc(Cn2c(-c3ccc(C)cc3)c(-c3ccc(C(F)(F)F)cc3)c(=O)c3cc([N+](=O)[O-])ccc32)cc1`, the IC50 in assay [1] came to 6.19 µM; in assay [2], 8.34 µM.

On to `Cc1ccc(-c2[nH]c3ccc(NC(=O)C(F)(F)F)cc3c(=O)c2-c2ccc(C)cc2)cc1`, for which the 50% inhibitory concentration (IC50) was determined as 6.02 µM in assay [1] and 1.67 µM in assay [2].
